Laboratory results reported in ChEMBL document CHEMBL1152666, “Structure-based virtual screening approach to the discovery of novel inhibitors of factor-inhibiting HIF-1: identification of new chelating groups for the active-site ferrous ion” (Bioorg Med Chem, 2009).

biological target: Hypoxia-inducible factor 1-alpha inhibitor (Homo sapiens, UniProt Q9NWT6); assay: Inhibition of human recombinant FIH1
Sequence (Q9NWT6 whole entry): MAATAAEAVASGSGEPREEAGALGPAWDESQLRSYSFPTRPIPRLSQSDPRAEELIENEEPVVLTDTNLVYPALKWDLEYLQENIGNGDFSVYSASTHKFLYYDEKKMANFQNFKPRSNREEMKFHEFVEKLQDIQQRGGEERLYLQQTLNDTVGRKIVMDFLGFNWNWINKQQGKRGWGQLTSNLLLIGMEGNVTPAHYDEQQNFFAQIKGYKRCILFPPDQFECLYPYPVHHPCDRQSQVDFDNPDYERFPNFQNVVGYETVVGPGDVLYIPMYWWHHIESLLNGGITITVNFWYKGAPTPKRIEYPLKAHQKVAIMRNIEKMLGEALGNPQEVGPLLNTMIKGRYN

Row | SMILES | IC50
1 | O=C(CCN1C(=O)/C(=C\C=C\c2ccco2)SC1=S)Nc1cccc2nonc12 | 48.6 µM
2 | O=C(O)CCN1C(=O)/C(=C\c2ccc(-c3ccc(Cl)cc3)o2)SC1=S | 66 µM
3 | COc1cccc(/C=C2\SC(=S)N(CCC(=O)Nc3cccc4nonc34)C2=O)c1 | 73.1 µM
4 | COc1cccc(/C=C2\SC(=S)N(CC(=O)Nc3cccc4nonc34)C2=O)c1 | 45.3 µM
5 | CCSc1ccc(-c2nn(-c3ccccc3)cc2/C=C2/SC(=S)N(CC(=O)O)C2=O)cc1 | 36.2 µM
6 | COc1ccccc1OCc1cn2c(-c3ccc4ccccc4n3)nnc2s1 | 41.4 µM
7 | COc1ccccc1/C=C/c1cn2c(-c3ccc4ccccc4n3)nnc2s1 | 47.5 µM
8 | COc1ccccc1/C=C1\SC(=S)N(CCC(=O)Nc2ccc(S(N)(=O)=O)cc2)C1=O | 32.1 µM
